According to ChEMBL document CHEMBL1201862, “PubChem BioAssay data set” (2004):
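Growth conditions: 96-well plates. Treatment: test compound, 48 hours, 5 concentrations. Analysis: linear interpolation between bracketing concentrations; unreached endpoints set to highest concentration. GI50 is the concentration that inhibits growth by half.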 Activity calls are given as the source filed them. Rule as the data show it: active = GI50 up to about 1.1 µM and inactive = higher.

Columns and labels:
Experiment in all cases: NCI-60 cell line screen, 48 h
OVCAR-4 = test system: OVCAR-4
SK-MEL-28 = test system: SK-MEL-28
CCRF-CEM = test system: CCRF-CEM
HCT-116 = test system: HCT-116
A549 = test system: A549
RXF 393 = test system: RXF 393
HOP-92 = test system: HOP-92
M19-MEL = test system: M19-MEL
HT-29 = test system: HT-29
NCI-H23 = test system: NCI-H23
TK-10 = test system: TK-10
SF-295 = test system: SF-295
MOLT-4 = test system: MOLT-4
SNB-78 = test system: SNB-78
EKVX = test system: EKVX
SNB-19 = test system: SNB-19
NCI-H460 = test system: NCI-H460
SF-268 = test system: SF-268
COLO 205 = test system: COLO 205
ACHN = test system: ACHN
HCT-15 = test system: HCT-15
SN12C = test system: SN12C
HOP-62 = test system: HOP-62
LXFL 529 = test system: LXFL 529
OVCAR-5 = test system: OVCAR-5
UO-31 = test system: UO-31
M14 = test system: M14
DMS-273 = test system: DMS-273
LOX IMVI = test system: LOX IMVI
RPMI-8226 = test system: RPMI-8226
OVCAR-3 = test system: OVCAR-3
786-0 = test system: 786-0
DMS-114 = test system: DMS-114
UACC-62 = test system: UACC-62
NCI-H226 = test system: NCI-H226
OVCAR-8 = test system: OVCAR-8
HOP-18 = test system: HOP-18
SNB-75 = test system: SNB-75
KM-20L2 = test system: KM-20L2
NCI-H522 = test system: NCI-H522
SK-OV-3 = test system: SK-OV-3
UACC-257 = test system: UACC-257
DLD-1 = test system: DLD-1
IGROV-1 = test system: IGROV-1
SK-MEL-2 = test system: SK-MEL-2
U-251 = test system: U-251
K562 = test system: K562
HL-60 = test system: HL-60
Malme-3M = test system: Malme-3M
SW-620 = test system: SW-620
A498 = test system: A498
SF-539 = test system: SF-539
CAKI-1 = test system: CAKI-1
SR = test system: SR
XF498 = test system: XF498
KM12 = test system: KM12
HCC 2998 = test system: HCC 2998
SK-MEL-5 = test system: SK-MEL-5

Measured: GI50

CCC1(CC)C(=O)NC(=O)NC1=S
inactive: OVCAR-4 > 100 µM | SK-MEL-28 > 100 µM | CCRF-CEM > 100 µM | HCT-116 > 100 µM | A549 > 100 µM | RXF 393 > 100 µM | HOP-92 > 100 µM | M19-MEL > 100 µM | HT-29 > 100 µM | NCI-H23 > 100 µM | TK-10 > 100 µM | SF-295 > 100 µM | MOLT-4 > 100 µM | SNB-78 > 100 µM | EKVX > 100 µM | SNB-19 > 100 µM | NCI-H460 > 100 µM | SF-268 > 100 µM | COLO 205 > 100 µM | ACHN > 100 µM | SN12C > 100 µM | HOP-62 > 100 µM | LXFL 529 > 100 µM | OVCAR-5 > 100 µM | UO-31 > 100 µM | M14 > 100 µM | DMS-273 > 100 µM | LOX IMVI > 100 µM | RPMI-8226 > 100 µM | OVCAR-3 > 100 µM | 786-0 > 100 µM | DMS-114 > 100 µM | UACC-62 > 100 µM | NCI-H226 > 100 µM | OVCAR-8 > 100 µM | HOP-18 > 100 µM | SNB-75 > 100 µM | KM-20L2 > 100 µM | NCI-H522 > 100 µM | SK-OV-3 > 100 µM | UACC-257 > 100 µM | DLD-1 > 100 µM | IGROV-1 > 100 µM | SK-MEL-2 > 100 µM | U-251 > 100 µM | K562 > 100 µM | HL-60 > 100 µM | Malme-3M > 100 µM | SW-620 > 100 µM | A498 > 100 µM | SF-539 > 100 µM
> 100 µM: HCT-15

[O-][n+]1c2c([n+]([O-])c3ccccc31)CCCCCCCCCC2
inactive: SK-MEL-28 > 100 µM | CCRF-CEM 85.7 µM | HCT-116 > 100 µM | A549 > 100 µM | HOP-92 67.8 µM | M19-MEL > 100 µM | HT-29 > 100 µM | CAKI-1 > 100 µM | NCI-H23 > 100 µM | SR 63.4 µM | TK-10 > 100 µM | SF-295 > 100 µM | MOLT-4 45.5 µM | SNB-78 > 100 µM | EKVX > 100 µM | SNB-19 > 100 µM | XF498 > 100 µM | SF-268 > 100 µM | KM12 > 100 µM | ACHN > 100 µM | SN12C > 100 µM | LXFL 529 68.1 µM | UO-31 > 100 µM | M14 > 100 µM | DMS-273 > 100 µM | LOX IMVI > 100 µM | RPMI-8226 > 100 µM | OVCAR-3 > 100 µM | 786-0 > 100 µM | UACC-62 > 100 µM | NCI-H226 14.2 µM | SNB-75 > 100 µM | KM-20L2 17.5 µM | NCI-H522 77.1 µM | SK-OV-3 > 100 µM | UACC-257 67.8 µM | DLD-1 > 100 µM | IGROV-1 > 100 µM | SK-MEL-2 > 100 µM | U-251 > 100 µM | K562 69.7 µM | HL-60 44.1 µM | Malme-3M > 100 µM | SW-620 > 100 µM | SF-539 > 100 µM
> 100 µM: HCT-15

CC(=O)NC1=C(NCCN(C)C)C(=O)c2ccccc2C1=O
inactive: OVCAR-4 8.93 µM | SK-MEL-28 > 50 µM | CCRF-CEM 15.4 µM | HCC 2998 14.9 µM | HCT-116 8.34 µM | A549 15 µM | RXF 393 25.4 µM | M19-MEL 7.6 µM | HT-29 13.8 µM | NCI-H23 11.5 µM | SK-MEL-5 7.21 µM | SR 41.3 µM | TK-10 27.8 µM | SF-295 15.2 µM | MOLT-4 21.9 µM | SNB-78 18.9 µM | EKVX 32.9 µM | SNB-19 17.6 µM | XF498 13.7 µM | NCI-H460 12.8 µM | SF-268 21.5 µM | COLO 205 9.95 µM | KM12 15.8 µM | ACHN 16.9 µM | SN12C 10.4 µM | HOP-62 14.5 µM | LXFL 529 15 µM | UO-31 > 50 µM | M14 18.4 µM | DMS-273 11.7 µM | LOX IMVI 12.6 µM | OVCAR-3 14.7 µM | 786-0 18.1 µM | UACC-62 10.5 µM | NCI-H226 > 50 µM | OVCAR-8 11.3 µM | SNB-75 25.5 µM | KM-20L2 16.4 µM | NCI-H522 10.3 µM | SK-OV-3 > 50 µM | UACC-257 9.25 µM | DLD-1 14.3 µM | IGROV-1 14.7 µM | SK-MEL-2 15.3 µM | U-251 10.3 µM | K562 12.4 µM | HL-60 9.79 µM | Malme-3M 7.62 µM | SW-620 16 µM | SF-539 11.7 µM
9.51 µM: HCT-15
